The record followed here is patent US11833159B2, “Non-hormonal steroid modulators of NF-kB for treatment of disease” (ReveraGen BioPharma, Inc., priority 2008, dated 2023).

Assay [1] deals with mdx mice. The assay can be described thus: mdx mouse model: histological evaluation (H&E) of gastrocnemius muscle. The assay is classed as in vivo. The conditions noted are these: 3 months per oral in feed, Examples 20 and 40 mg/kg/day; for Inflammation of skeletal muscle (H&E histology): in comparison to untreated and prednisolone treated mdx mice; for Degeneration of skeletal muscle (H&E histology) / Regeneration / regenerating muscle fibers (H&E histology): prednisolone 5 mg/kg/day. As for the experimental part:
(§1) Separate groups (n=12-14) of mdx mice were treated with prednisolone (5 mg/kg/day; per oral in feed), Example 1 (20 and 40 mg/kg/day; per oral in feed) and Example 2 (20 and 40 mg/kg/day; per oral in feed) for 3 months. All mice underwent 30 min biweekly treadmill exercise during the treatment duration to unmask the mild disease phenotype of mdx mouse model.
Hematoxylin and Eosin staining of gastrocnemius muscle of untreated mdx mice show significant degeneration and inflammation.

The subject of assay [2] is mdx mice. The assay can be described thus: mdx mouse model: in vitro force contractions of EDL muscle. It is filed as in vivo. The conditions noted are these: 5 mg/kg/day per oral in feed. As for the experimental part: as §1
The distal tendon of the extensor digitorum longus (EDL) muscle was tied securely to the lever arm of a servomotor/force transducer (model 305B, Aurora Scientific, Richmond Hill, ON, Canada) and the proximal tendon to a tissue clamp. Muscles were stimulated between two platinum electrodes. […] The muscle length was then measured with calipers and after removal of the muscle from the bath the mass of the muscle was determined. For each muscle, the optimum fiber length (Lf) was calculated by multiplying Lo by a previously determined Lf/Lo ratio of 0.45. Total muscle fiber cross-sectional area was determined by dividing the wet mass by the product of Lf and the density of mammalian skeletal muscle (1.06 mg/mm^3). Maximum isometric specific force (sPo) was determined by dividing Po by the total muscle fiber cross-sectional area.

Assay [3] is described as follows: In vivo mdx mouse model of dystrophy: body weight and muscle mass. The conditions noted are these: 5 mg/kg/day per oral in feed, at 33.8 weeks age, P<0.05. As for the experimental part: as §1

Take `C[C@]12CCC(=O)C=C1CCC1C2=CC[C@@]2(C)C1CC[C@]2(O)C(=O)CO` (stereo partly drawn) [Example 1, (10S,13S,17R)-17-hydroxy-17-(2-hydroxyacetyl)-10,13-dimethyl-6,7,8,10,12,13,14,15,16,17-decahydro-1H-cyclopenta[a]phenanthren-3(2H)-one]: in the assay with mdx mice [1], the “Inflammation of skeletal muscle (H&E histology)” value is recorded as “significant decrease”, the “Degeneration of skeletal muscle (H&E histology)” value (from here on “Degeneration … (H&E histology)”) is reported as “significant decrease” and the “Regeneration / regenerating muscle fibers (H&E histology)” value is recorded as “increase in regenerating muscle fibers”.
In the case of `C[C@]12C=CC(=O)C=C1CC[C@@H]1[C@@H]2[C@@H](O)C[C@@]2(C)[C@H]1CC[C@]2(O)C(=O)CO` [prednisolone, reference compound], the “Specific force of EDL muscle, difference to untreated group” value with mdx mice [2] is recorded as “no statistically significant (P<0.05) difference”. Further, in assay [3], the “Body weight versus untreated mice” value was “significantly lower body weight”. Moreover, in the assay with mdx mice [1], the “Degeneration … (H&E histology)” value is given as “appeared to increase degeneration” and the “Regeneration / regenerating muscle fibers (H&E histology)” value is “decrease in regeneration”.
In the case of `C[C@]12C=CC(=O)C=C1CCC1C2=CC[C@@]2(C)C1CC[C@]2(O)C(=O)CO` (stereo partly drawn) [Example 2, (10S,13S,17R)-17-hydroxy-17-(2-hydroxyacetyl)-10,13-dimethyl-6,7,8,10,12,13,14,15,16,17-decahydro-3H-cyclopenta[a]phenanthren-3-one], in the assay with mdx mice [1], the “Inflammation of skeletal muscle (H&E histology)” value is listed as “significant decrease”, the “Degeneration … (H&E histology)” value is reported as “significant decrease” and the “Regeneration / regenerating muscle fibers (H&E histology)” value is reported as “increase in regenerating muscle fibers”.
